From PubChem BioAssay (NCI)
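Following 48 hours of exposure in 96-well plates, responses at five concentrations were used to interpolate endpoints linearly. GI50 marks 50% less growth. TGI is the concentration that stops growth completely.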

Assays:
Assay in all cases: DTP human tumour cell line panel, 48 h
NCI-H23 lung = tested on: NCI-H23 lung
OVCAR-5 ovarian = tested on: OVCAR-5 ovarian
SF-295 CNS = tested on: SF-295 CNS
NCI-H226 lung = tested on: NCI-H226 lung
HT29 colon = tested on: HT29 colon
SN12C renal = tested on: SN12C renal
OVCAR-3 ovarian = tested on: OVCAR-3 ovarian
SNB-19 CNS = tested on: SNB-19 CNS
RPMI-8226 leukemia = tested on: RPMI-8226 leukemia
BT-549 breast = tested on: BT-549 breast

Row | SMILES | TGI (NCI-H23 lung) [µM] | TGI (OVCAR-5 ovarian) [µM] | TGI (SF-295 CNS) [µM] | TGI (NCI-H226 lung) [µM] | TGI (HT29 colon) [µM] | TGI (SN12C renal) [µM] | TGI (OVCAR-3 ovarian) [µM] | TGI (SNB-19 CNS) [µM] | TGI (RPMI-8226 leukemia) [µM] | GI50 (NCI-H23 lung) [µM] | GI50 (OVCAR-5 ovarian) [µM] | GI50 (SF-295 CNS) [µM] | GI50 (NCI-H226 lung) [µM] | GI50 (HT29 colon) [µM] | GI50 (SN12C renal) [µM] | GI50 (OVCAR-3 ovarian) [µM] | GI50 (SNB-19 CNS) [µM] | GI50 (RPMI-8226 leukemia) [µM] | GI50 (BT-549 breast) [µM] | TGI (BT-549 breast) [µM]
1 | CCCCc1c2cnccc2c(CCCC)c2c1[nH]c1ccccc12 | 36.2 | > 100 | 20.2 | 34 | 29 | 62.4 | 19.6 | 22.1 | 17.6 | – | – | – | – | – | – | – | – | – | – | –
2 | O=C(Nc1ccccc1-c1nn(CN2CCNCC2)c(=S)n(CN2CCNCC2)c1=O)C(F)(F)F | 32.6 | 45 | 76.5 | 40.7 | 57.5 | 46.1 | 49.9 | 48.1 | – | – | – | – | – | – | – | – | – | – | – | –
3 | C=CCN1/C(=C2\SC(=S)N(c3ccc(C)cc3)C2=O)Sc2c1ncn(C)c2=O | > 100 | > 100 | > 100 | > 100 | > 100 | > 100 | – | > 100 | > 100 | – | – | – | – | – | – | – | – | – | – | –
4 | N/N=C(\c1nc2ccc(Cl)cc2[nH]c1=O)C(O)c1ccc(Cl)c(Cl)c1 (stereo not drawn) | > 100 | > 100 | > 100 | > 100 | > 100 | > 100 | > 100 | > 100 | > 100 | – | – | – | – | – | – | – | – | – | – | –
5 | COc1ccc(C(=O)CC2=Nc3nnc(CCCCCCCc4nnc5n4C(=O)C(CC(=O)c4ccc(OC)cc4)=N5)n3C2=O)cc1 | > 100 | > 100 | > 100 | > 100 | > 100 | > 100 | > 100 | > 100 | > 100 | – | – | – | – | – | – | – | – | – | – | –
6 | Cc1cc(C)c(C(=O)O)c(SSc2cc(C)cc(C)c2C(=O)O)c1 | > 100 | > 100 | > 100 | > 100 | > 100 | > 100 | – | > 100 | – | – | – | – | – | – | – | – | – | – | – | –
7 | CCCN(CCC)C(=O)c1nc(N)nc(-c2ccc(OC)cc2)c1-c1ccc(OC)cc1 | > 100 | > 100 | > 100 | > 100 | > 100 | > 100 | > 100 | > 100 | > 100 | – | – | – | – | – | – | – | – | – | – | –
8 | Nc1nc2cc(CC[C@H]3C[C@@H](n4ccc5c(N)ncnc54)[C@H](O)[C@@H]3O)ccc2cc1Br | 23.9 | 30.1 | 19 | 26.8 | 24.3 | 22.4 | 26.1 | 23.5 | 57.2 | 2.07 | 14.2 | 3.25 | 2.71 | 2.46 | 8.59 | 10 | 7.09 | 4.92 | 2.41 | 16
9 | COC1=CC(c2ccc[nH]2)=N/C1=C\c1[nH]c(C)c(CC(=O)OCc2ccccc2)c1C | 2.98 | 5.38 | 1.1 | 2.31 | 1.41 | – | 1.41 | 12.4 | – | 0.399 | 1.11 | 0.252 | 0.33 | 0.205 | – | 0.31 | 0.671 | – | 0.432 | 3.08
10 | COc1cc(C(=O)O[C@H](C(=O)NCCN(C)CCNC(=O)[C@@H](OC(=O)c2cc(OC)cc3c(C)cccc23)[C@]2(C)CO2)[C@]2(C)CO2)c2cccc(C)c2c1 | 0.0137 | 2.75 | 0.182 | 0.721 | > 27 | 0.3 | – | 1.18 | 5.85 | < 0.01 | 0.217 | < 0.0337 | 0.182 | < 0.0184 | < 0.0308 | – | 0.265 | 0.246 | 0.342 | 4.85
11 | CC1=NOC(=O)/C1=C/c1ccc([N+](=O)[O-])cc1 | > 100 | > 100 | > 100 | > 100 | > 100 | > 100 | > 100 | > 100 | – | – | – | – | – | – | – | – | – | – | – | –
12 | O=C1CNC(=O)c2[nH]cnc2N1 | > 100 | > 100 | > 100 | > 100 | > 100 | > 100 | > 100 | > 100 | > 100 | – | – | – | – | – | – | – | – | – | – | –
13 | COC(=O)[C@@H](C)[C@H]1CC[C@@](C)(CCC2=C(C)CC3C=C(C)CCC3C2(C)C)OO1 (stereo partly drawn) | 3.49 | 3.27 | 3.2 | 4.13 | 2.96 | 2.36 | 3.42 | 3.16 | 5.98 | – | – | – | – | – | – | – | – | – | – | –
14 | COC1CCC(OC)C(C2(C3CC(OC)CCC3OC)OC(=O)c3ccccc32)C1 (stereo not drawn) | > 100 | > 100 | > 100 | > 100 | > 100 | > 100 | > 100 | > 100 | > 100 | – | – | – | – | – | – | – | – | – | – | –
15 | COc1ccc2oc(-c3ccc(OC)c(OC)c3OC)cc(=O)c2c1 | > 100 | > 100 | > 100 | 81.1 | > 100 | > 100 | > 100 | > 100 | 43 | – | – | – | – | – | – | – | – | – | – | –
16 | c1ccc(SC23C4C5C6C4C2C6C53)nc1 (stereo not drawn) | > 100 | > 100 | > 100 | > 100 | > 100 | > 100 | > 100 | > 100 | > 54 | – | – | – | – | – | – | – | – | – | – | –
17 | Cc1ccc(NC(=O)/C(Cc2cc(=O)oc3cc(O)ccc23)=N\NC(C)(C)C)cc1C | > 100 | – | > 100 | > 100 | > 100 | > 100 | > 100 | > 100 | > 100 | – | – | – | – | – | – | – | – | – | – | > 100
18 | COC(=O)C1CC(OC(C)=O)C=C2C(=O)CCC21 (stereo not drawn) | – | – | – | > 100 | – | 41.9 | 31.2 | 60.3 | 57.7 | – | – | – | – | – | – | – | – | – | – | –
19 | CC(=O)/C=C/C1=C(c2csc3ccccc23)c2ccccc2CC1 | – | > 100 | 65.2 | 44.1 | > 100 | > 100 | 43.3 | > 100 | 47.3 | – | 33.8 | 21 | 19.8 | 21.3 | 32.6 | 13.6 | 32.5 | 8.69 | 22.9 | 55
